# Earlier results, collected in patent US20040266755A1, “Prodrugs of 1-(1-hydroxy-5-isoquinolinesulfonyl) homopiperazine” (Schering Aktiengesellschaft, priority 2003, published 2004).
# Test system: Rho-kinase
# Conditions: compared with fasudil; Shimokawa et al. (1999) Cardiovas. Res. 43:1138-1141
compound,measurement,value
"O=S(=O)(c1cccc2c(O)nccc12)N1CCCNCC1 [Hydroxyfasudil, 1-(1-hydroxy-5-isoquinolinesulfonyl) homopiperazine]",specificity of inhibitory effect on Rho-kinase,more specific inhibitory effect on Rho-kinase than fasudil
